Reference: patent publication US12304912B2, “Fused bicyclic RAF inhibitors and methods for use thereof” (Jazz Pharmaceuticals Ireland Limited, priority 2020, dated 2025)

Experiments:
[1] = tested on: BRAF monomers in A375 cells; experiment: A375 AlphaLISA SureFire pERK1/2 cellular assay (monomer); type: cell-based; conditions: Homo sapiens, A-375; A375 cells, 1 hr; read-out: pERK A375 (1 hr) pIC50 (converted)
In short: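 BRAF^V600E A375 melanoma cells seeded at 30,000/well in DMEM with 10% FBS, dosed without medium exchange in a 10-point series from 10 μM at 1/2-log steps, 1 h at 37 °C. Phospho-ERK1/2 (Thr202/Tyr204) measured in lysates by AlphaLISA SureFire; absolute IC50 relative to DMSO control.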

[2] = Plasma protein binding assay, human plasma (hPPB); type: in vitro ADME; conditions: 5 μM
In short: (§1)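 Equilibrium dialysis of 5 μM compound in previously frozen human or mouse plasma against phosphate buffer, 4 h at 37 °C. Both chambers quantified by LC-MS/MS; % free = (1−((PC−PF)/PC))×100.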

[3] = Plasma protein binding assay, mouse plasma (mPPB); type: in vitro ADME; conditions: 5 μM
In short: as §1

[4] = Microsomal stability assay, mouse liver microsomes (MLM); type: in vitro ADME; conditions: 0.5 mg/mL protein, 1 μM substrate
In short: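 Substrate depletion: 1 μM compound incubated at 37° C. with cryopreserved mouse or human liver microsomes at 0.5 mg·mL^−1 protein. Timed aliquots quenched in ice-cold organic solvent and measured by LC-MS/MS; t1/2 and CLint derived from the slope of ln % remaining versus time.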

[5] = equilibrium dialysis 4 hours 37° C.
[6] = equilibrium dialysis 4 hours at 37° C.

Compound | IC50 [1] [nM] | hPPB (% free) [2, 5] [% free] | mPPB (% free) [3, 5] [% free] | microsomal CLint at 1 μM [4] [µL/min/mg] | hPPB (% free) [2, 6] [% free] | mPPB (% free) [3, 6] [% free] | microsomal CLint at 1 μM ([4]; 37° C.) [µL/min/mg] | MLM (CLint) ([4]; 37° C.) [µL/min/mg]
N#Cc1ccc2[nH]c(C3COc4ccc(Oc5ccnc6c5CCC(=O)N6)cc4C3)nc2c1 (stereo not drawn) [Compound 24] | 562 | 1.8 | 1.9 | 41.6 |  |  |  | 
O=C(CN1CCCC1)Nc1cc(Oc2ccc3c(c2)CC(c2nc(-c4ccccc4)c[nH]2)CO3)ccn1 (stereo not drawn) [Compound 152] | 603 |  |  |  | 0.48 | 0.47 | 259 | 
Cc1cc(-c2c[nH]c(C3COc4ccc(Oc5ccnc6c5CCC(=O)N6)cc4C3)n2)n(C)n1 (stereo not drawn) [Compound 106, 5-[3-[4-(2,5-dimethylpyrazol-3-yl)-1H-imidazol-2-yl]chroman-6-yl]oxy-3,4-dihydro-1H-1,8-naphthyridin-2-one] | 933 |  |  |  | 2.4 | 3.0 | 17.1 | 
O=C1CCc2c(Oc3ccc4c(c3)CN(c3nc5cc(C(F)(F)F)ccc5[nH]3)CC4)ccnc2N1 [Compound 160] | 871 |  |  |  | 0.3 | <0.1 | 4.5 | 
O=C1CCc2c(Oc3ccc4c(c3)CC(c3nc(-c5cccc(C(F)(F)F)c5)c[nH]3)CO4)ccnc2N1 (stereo not drawn) [Compound 12, 5-[3-[4-[3-(trifluoromethyl)phenyl]-1H-imidazol-2-yl]chroman-6-yl]oxy-3,4-dihydro-1H-1,8-naphthyridin-2-one] | 42.7 | <0.1 | <0.1 | 15.7 |  |  |  | 
O=C1CCc2c(Oc3ccc4c(c3)CC(c3nc5ccncc5[nH]3)CO4)ccnc2N1 (stereo not drawn) [Compound 134, 5-[3-(3H-imidazo[4,5-c]pyridin-2-yl)chroman-6-yl]oxy-3,4-dihydro-1H-1,8-naphthyridin-2-one] | > 1000 |  |  |  | 6.1 | 9.5 | 72.4 | 
Cc1cc2nc(C3COc4ccc(Oc5ccnc6c5CCC(=O)N6)cc4C3)[nH]c2cc1C (stereo not drawn) [Compound 29] | 32.4 | 0.2 | 0.6 | 77.6 |  |  |  | 
COc1ccsc1-c1c[nH]c(C2COc3ccc(Oc4ccnc5c4CCC(=O)N5)cc3C2)n1 (stereo not drawn) [Compound 123] | 28.2 |  |  |  | 0.23 | 0.25 | 126 | 
O=C(CN1CC(O)C1)Nc1cc(Oc2ccc3c(c2)CC(c2nc(-c4ccccc4)c[nH]2)CO3)ccn1 (stereo not drawn) [Compound 153] | 501 |  |  |  | 0.39 | 0.6 | 92.9 | 
CCn1nc(C)cc1-c1c[nH]c(C2COc3ccc(Oc4ccnc5c4CCC(=O)N5)cc3C2)n1 (stereo not drawn) [Compound 124, 5-[3-[4-(2-ethyl-5-methyl-pyrazol-3-yl)-1H-imidazol-2-yl]chroman-6-yl]oxy-3,4-dihydro-1H-1,8-naphthyridin-2-one] | 1070 |  |  |  | 2.7 | 3.9 | 28.2 | 
COc1cc(-c2c[nH]c(C3COc4ccc(Oc5ccnc6c5CCC(=O)N6)cc4C3)n2)ccn1 (stereo not drawn) [Compound 19, 5-[3-[4-(2-methoxy-4-pyridyl)-1H-imidazol-2-yl]chroman-6-yl]oxy-3,4-dihydro-1H-1,8-naphthyridin-2-one] | 1620 | 1.9 | 1.5 | 23 |  |  |  | 
O=C(Nc1nccc(Oc2ccc3c(c2)CC(c2nc(-c4ccccc4)c[nH]2)CO3)n1)C1CC1 (stereo not drawn) [Compound 148, N-[4-[3-(4-phenyl-1H-imidazol-2-yl)chroman-6-yl]oxypyrimidin-2-yl]cyclopropanecarboxamide] | 1230 |  |  |  | 0.9 | 0.4 | 211 | 
O=C(CN1CCOCC1)Nc1cc(Oc2ccc3c(c2)CC(c2nc(-c4ccccc4)c[nH]2)CO3)ccn1 (stereo not drawn) [Compound 149] | 1320 |  |  |  | 0.25 | 0.14 | 231 | 
O=C1CCc2c(Oc3ccc4c(c3)CN(C(=O)Nc3cccc(C(F)(F)F)c3)CC4)ccnc2N1 [Compound 50] | 269 | 1.2 | 1.6 | 79 |  |  |  | 
O=C1CCc2c(Oc3ccc4c(c3)CC(c3nc(-c5ccc(C(F)(F)F)nc5)c[nH]3)CO4)ccnc2N1 (stereo not drawn) [Compound 127, 5-[3-[4-[6-(trifluoromethyl)-3-pyridyl]-1H-imidazol-2-yl]chroman-6-yl]oxy-3,4-dihydro-1H-1,8-naphthyridin-2-one] | 851 |  |  |  | 0.6 | 0.2 | 13.4 | 
Cc1cc(-c2c[nH]c(C3COc4ccc(Oc5ccnc6c5CCC(=O)N6)cc4C3)n2)n(CC(F)(F)F)n1 (stereo not drawn) [Compound 126, 5-[3-[4-[5-methyl-2-(2,2,2-trifluoroethyl)pyrazol-3-yl]-1H-imidazol-2-yl]chroman-6-yl]oxy-3,4-dihydro-1H-1,8-naphthyridin-2-one] | 794 |  |  |  | 1.0 | 0.7 | 55.7 | 
O=C(Nc1cc(Oc2ccc3c(c2)CC(c2nc(-c4ccccc4)c[nH]2)CO3)ccn1)C1CC(F)(F)C1 (stereo not drawn) [Compound 139] | 1070 |  |  |  | <0.1 | <0.1 |  | 277
Cn1ncc2ccc(-c3c[nH]c(C4COc5ccc(Oc6ccnc7c6CCC(=O)N7)cc5C4)n3)cc21 (stereo not drawn) [Compound 130, 5-[3-[4-(1-methylindazol-6-yl)-1H-imidazol-2-yl]chroman-6-yl]oxy-3,4-dihydro-1H-1,8-naphthyridin-2-one] | 1000 |  |  |  | 0.1 | 0.2 | 23.5 | 
CCc1cc(-c2c[nH]c(C3COc4ccc(Oc5ccnc6c5CCC(=O)N6)cc4C3)n2)n(C2CC2)n1 (stereo not drawn) [Compound 113, 5-[3-[4-(2-cyclopropyl-5-ethyl-pyrazol-3-yl)-1H-imidazol-2-yl]chroman-6-yl]oxy-3,4-dihydro-1H-1,8-naphthyridin-2-one] | 4680 |  |  |  | 0.6 | 1.6 | 38.2 | 
Cc1cc(-c2c[nH]c(C3COc4ccc(Oc5ccnc6c5CCC(=O)N6)cc4C3)n2)n(C(C)C)n1 (stereo not drawn) [Compound 112, 5-[3-[4-(2-isopropyl-5-methyl-pyrazol-3-yl)-1H-imidazol-2-yl]chroman-6-yl]oxy-3,4-dihydro-1H-1,8-naphthyridin-2-one] | 1780 |  |  |  | 1.4 | 2.0 | 55.5 | 
O=C(Nc1cc(Oc2ccc3c(c2)CC(c2nc(-c4ccccc4)c[nH]2)CO3)ccn1)C1(F)CC1 (stereo not drawn) [Compound 138] | 1620 |  |  |  | <0.1 | <0.1 |  | 277
CC(=O)Nc1cc(Oc2ccc3c(c2)CC(c2nc(-c4ccccc4)c[nH]2)CO3)ccn1 (stereo not drawn) [Compound 156, N-[4-[3-(4-phenyl-1H-imidazol-2-yl)chroman-6-yl]oxy-2-pyridyl]acetamide] | 178 |  |  |  | 0.5 | 0.4 | 152 | 
CN1CCN(CC(=O)Nc2cc(Oc3ccc4c(c3)CC(c3nc(-c5ccccc5)c[nH]3)CO4)ccn2)CC1 (stereo not drawn) [Compound 146, 2-(4-methylpiperazin-1-yl)-N-[4-[3-(4-phenyl-1H-imidazol-2-yl)chroman-6-yl]oxy-2-pyridyl]acetamide] | 372 |  |  |  | 1.5 | 0.7 | 89.7 | 
O=C(Nc1cc(Oc2ccc3c(c2)CC(c2nc(-c4ccccc4)c[nH]2)CO3)ccn1)C1CC1 (stereo not drawn) [Compound 45, N-[4-[3-(4-phenyl-1H-imidazol-2-yl)chroman-6-yl]oxy-2-pyridyl]cyclopropanecarboxamide] | 162 | 0.2 | 0.2 | 277 |  |  |  | 
O=C1CCc2c(Oc3ccc4c(c3)CC(c3nc(C5CCOCC5)c[nH]3)CO4)ccnc2N1 (stereo not drawn) [Compound 132, 5-[3-(4-tetrahydropyran-4-yl-1H-imidazol-2-yl)chroman-6-yl]oxy-3,4-dihydro-1H-1,8-naphthyridin-2-one] | 759 |  |  |  | 2.6 | 10.1 | 9.3 | 
O=C(CN1CC[C@@H](O)C1)Nc1cc(Oc2ccc3c(c2)CC(c2nc(-c4ccccc4)c[nH]2)CO3)ccn1 (stereo partly drawn) [Compound 145] | 537 |  |  |  | 0.4 | 0.53 | 147 | 
O=C1CCc2c(Oc3ccc4c(c3)CC(c3nc5cc(F)c(F)cc5[nH]3)CO4)ccnc2N1 (stereo not drawn) [Compound 23] | 257 | 0.5 | 0.5 | 30.5 |  |  |  | 
